Experimental data from US20080155704A1, “Methods and Compositions for Determining in vivo Activity of BiP” (King's College London, priority 2006, published 2008).

Columns and labels:
Type in all cases: cell-based, human
IL-10 = IL-10 production by dendritic cell cultures (ELISA); conditions: 3d GM-CSF and IL-4 with BiP 20 μg/ml; inhibitors 10 μM, anti-IL-10 added at day 0 (FIG. 13D)
Experimental: (§1) Supernatant samples were collected on day 1, 3 and 7 for iDC and from the final cultures of the T cells taken from the iDC/mDC-T cell allogeneic test system and set up with autologous cells to determine if there was any regulatory activity. The samples were aliquoted and frozen at −70° C. until required. Production IL-10 was quantified by ELISA using paired antibodies and recombinant standards (PharMingen, Oxford, UK) according to the recommendations of the manufacturer. In addition some were analysed by cytometric bead assay (BD, Oxford, UK) according to the manufacturers instructions.
(§2) To neutralize IL-10 within the cultures anti-IL-10 antibody (ATCC, Rockville, USA) was added at day 0 (5 μg/ml) to GM-CSF and IL-4 treated cultures in the presence and absence of BiP (20 μg/ml). Two specific cell-permeable inhibitors of the MAPK intracellular signalling pathways were used. SB203580 (SB)(10 μM)((Calbiochem, Darmstadt, Germany) inhibits p38 MAPK, and PD98059 (PD) (10 μM)(Calbiochem), an inhibitor of MAPK extracellular signal regulated kinase (ERK), were tested. MO were pre-treated with the inhibitors for 2 h before adding GM-CSF and IL-4 in the presence or absence of BiP.
as §1, with “of the pro-inflammatory cytokine, TNFα, and the anti-inflammatory cytokine, IL-10,” for “IL-10”

allogeneic T cells = assay: Allogeneic proliferative response to early BiP treated DC (tritiated thymidine uptake); conditions: early DC 72 h; inhibitors 10 μM 2 h pre-treatment of monocytes; anti-IL-10 neutralizing antibody (FIG. 13A, B)
Experimental: Allogeneic responses by T cells in culture with irradiated (3,000 rads) early DC (eDC), after only 3d in culture with GM-CSF and IL-4 in the presence or absence of BiP (20 μg/ml) at a ratio of 10:1 PBMC:DC (105:10^4 cells/well). The results are shown as an allogeneic proliferative response (A) following addition of neutralizing anti-IL-10 ( 1/100 dilution) antibody and (B) the pre-treatment (2 h) of monocytes (MO) with p38 inhibitor, SB203580 (SB)(10 μM) or the ERK1/2 inhibitor, PD 98059 (PD)(10 μM), prior to the addition of GM-CSF and IL-4 to the cultures. The proliferation of PBMC to early DC following (C) the addition of BiP 24 h post addition of GM-CSF and IL-4. Proliferation was measured by uptake of tritiated thymidine and recorded as counts per minute (cpm). ELISA was used to detect IL-10 (D) in the culture supernatants and (E) by 7d cultured iDC/iDC(BiP) and fully matured mDC/mDC(BiP) differentiated as described in following 7d culture in GM-CSF and IL-4 with LPS (500 ng/ml) added for the final 2d.
as §2

T cells = assay: Regulatory markers on T cells co-cultured with BiP-treated dendritic cells
Experimental: FIG. 11: Co-culture of T cells with BiP-treated dendritic cells (DC) upregulates regulatory markers. […] Mean ±standard deviation of three experiments is shown.
Intracellular staining was carried out with fixed cells incubated with 1% paraformaldehyde in IF buffer for 5 minutes at room temperature. The cells were washed twice with IF buffer containing 0.3% saponin for permeabilization. 0.3% saponin was then present in all IF buffer used thereafter. CTLA-4/CD152 (BD), FoxP3 (eBioscience) and indolamine 2,3-dioxygenase (Santa Cruz) and cytokines required intracellular staining. Antibodies were added at the pre-determined optimal concentration for 20 mins and then the cells were washed twice with IF buffer and analysed. Isotype controls, IgG1 and IgG2a (Becton Dickinson, Oxford, UK) were used in parallel. Cells were analysed on a FACScan cytometer using Cellquest software (Becton Dickinson, Oxford, UK).
T cells were purified from peripheral blood mononuclear cells and set up in culture with either allogeneic or autologous dendritic cells, which had been washed and irradiated, at a ratio of 10 T cells:1 DC. The cells were co-cultured in a 24 well plate in 1 ml/well, in RPMI 1640 supplemented with 10% foetal calf serum, for 4 days then the T cells were removed and washed before being investigated for the presence of T regulatory cells (see below)
Immunofluorescent staining was performed, as described previously (39), on DC harvested at day 7, T cells after 4 days co-culture with DC. Saturating concentrations of fluorescein isothiocyanate (FITC)-, phycoerythrin (PE) or peridium chlorophyll (Per-CP)-conjugated mAb were added recognizing CD14, CD86, CD80, HLA-DR, CD11c, CD1a, CD83, CD85j, IL-10 receptor; purity of the negatively selected MO and T cells was checked using CD3, CD4, CD14, CD20 and CD57 (all from Becton Dickinson/PharMingen (BD), Oxford, UK). Intracellular staining was carried out following fixation of cells with 1% paraformaldehyde for 5 minutes. Cells were then washed with immunofluorescence buffer (PBS/0.1% BSA/0.05% azide) containing 0.3% saponin. 0.3% saponin was then present in all solutions thereafter. CD152/CTLA-4 (BD, Oxford UK) and IDO (Santa Cruz, Autogen Bioclear, UK) were intracellular stains. Isotype controls, IgG1 and IgG2a (BD, Oxford, UK) were used in parallel. Cells were analysed on a FACScan/FACScalibur cytometers using Cellquest software (BD, Oxford, UK).

SMILES | IL-10 production by early DC(BiP) cultures (IL-10) | reversal of BiP's inhibitory activity on the allogeneic response (allogeneic T cells) | proliferation of T cells in an allogeneic response after co-culture with 1MT (T cells; 1MT 200 μM added to co-cultures of T cells with autologous mDC or mDC(BiP)) | T cell expression of intracellular CTLA-4 in the presence of 1MT (T cells; 1MT 200 μM in mDC/mDC(BiP)-T cell co-cultures, n=3)
COc1cccc(-c2cc(=O)c3ccccc3o2)c1N [PD98059, reference compound] | did not inhibit IL-10 production | could not |  | 
C[S+]([O-])c1ccc(-c2nc(-c3ccncc3)c(-c3ccc(F)cc3)[nH]2)cc1 (stereo not drawn) [SB203580, reference compound] | not detected | totally reversed BiP's inhibitory activity |  | 
Cn1cc(C[C@H](N)C(=O)O)c2ccccc21 [1MT, 1 methyl tryptophan, reference compound] |  |  | increased proliferation by the T cells | significant reduction in T cell expression of CTLA-4
